Test results published in patent US7417156B2, “Orally active, antimalarial, anticancer, artemisinin-derived trioxane dimers” (Johns Hopkins University, priority 2002, dated 2008).
Like-named read-outs stand apart in the source and are kept apart here.

Tests used:
SNB-75 = assay: NCI 60 cell line panel screen (SRB); format: cell-based, human
SK-MEL-28 = assay: NCI 60 cell line panel screen (SRB); format: cell-based, human
ACHN = assay: NCI 60 cell line panel screen (SRB); format: cell-based, human
MALME-3M = assay: NCI 60 cell line panel screen (SRB); format: cell-based, human; conditions: MALME-3M (Melanoma)
HOP-62 = assay: NCI 60 cell line panel screen (SRB); format: cell-based, human
CAKI-1 = assay: NCI 60 cell line panel screen (SRB); format: cell-based, human
[1] = test system: chloroquine-sensitive P. falciparum (NF54); assay: Antimalarial activity in vitro, [3H]hypoxanthine incorporation; format: cell-based
MDA-MB231/ATCC = assay: NCI 60 cell line panel screen (SRB); format: cell-based, human
UACC-257 = assay: NCI 60 cell line panel screen (SRB); format: cell-based, human
MCF7 = assay: NCI 60 cell line panel screen (SRB); format: cell-based, human
M14 = assay: NCI 60 cell line panel screen (SRB); format: cell-based, human
A549/ATCC = assay: NCI 60 cell line panel screen (SRB); format: cell-based, human
HT29 = assay: NCI 60 cell line panel screen (SRB); format: cell-based, human
COLO 205 = assay: NCI 60 cell line panel screen (SRB); format: cell-based, human
SK-OV-3 = assay: NCI 60 cell line panel screen (SRB); format: cell-based, human
786-0 = assay: NCI 60 cell line panel screen (SRB); format: cell-based, human
RPMI-8226 = assay: NCI 60 cell line panel screen (SRB); format: cell-based, human; conditions: RPMI-8226 (Leukemia)
NCI/ADR-RES = assay: NCI 60 cell line panel screen (SRB); format: cell-based, human
NCI-H460 = assay: NCI 60 cell line panel screen (SRB); format: cell-based, human
HCT-15 = assay: NCI 60 cell line panel screen (SRB); format: cell-based, human
K-562 = assay: NCI 60 cell line panel screen (SRB); format: cell-based, human
NCI-H522 = assay: NCI 60 cell line panel screen (SRB); format: cell-based, human
HCT-116 = assay: NCI 60 cell line panel screen (SRB); format: cell-based, human
SF-268 = assay: NCI 60 cell line panel screen (SRB); format: cell-based, human
MDA-MB-435 = assay: NCI 60 cell line panel screen (SRB); format: cell-based, human; conditions: MDA-MB-435 (Breast Cancer)

For CC1CCC2C(C)C(CC(O)(CO)CC3OC4OC5(C)CCC6C(C)CCC(C3C)C46OO5)OC3OC4(C)CCC1C32OO4 (centres unmarked) [Compound 5, bis-trioxane vicinal diol], the Log10GI50 (SNB-75; CNS Cancer, SNB-75) was −4.53, the Log10LC50 (SNB-75; SNB-75 (CNS Cancer), LC50: PG=−50) was over −4.00 log10M and the Log10TGI50 (SNB-75; SNB-75 (CNS Cancer), TGI: PG=0) was −4.04 log10M. The Log10GI50 (SK-MEL-28; Melanoma, SK-MEL-28) was −4.79, the Log10LC50 (SK-MEL-28; SK-MEL-28 (Melanoma), LC50: PG=−50) was over −4.00 log10M and the Log10TGI50 (SK-MEL-28; SK-MEL-28 (Melanoma), TGI: PG=0) was −4.31 log10M. It also gave a Log10LC50 (ACHN; ACHN (Renal Cancer), LC50: PG=−50) of 4.47 log10M, a Log10TGI50 (ACHN; ACHN (Renal Cancer), TGI: PG=0) of under −8.00 log10M and a Log10GI50 (ACHN; Renal Cancer, ACHN) of under −8.00. The Log10LC50 (MALME-3M; LC50: PG=−50) was −4.11 log10M, the Log10TGI50 (MALME-3M; TGI: PG=0) was −4.50 log10M and the Log10LC50 (HOP-62; HOP-62 (Non-Small Cell Lung Cancer), LC50: PG=−50) was over −4.00 log10M. It also gave a Log10TGI50 (HOP-62; HOP-62 (Non-Small Cell Lung Cancer), TGI: PG=0) of −4.26 log10M, a Log10GI50 (HOP-62; Non-Small Cell Lung Cancer, HOP-62) of −4.66 and a Log10LC50 (CAKI-1; CAKI-1 (Renal Cancer), LC50: PG=−50) of −4.13 log10M. For the same compound, the Log10TGI50 (CAKI-1; CAKI-1 (Renal Cancer), TGI: PG=0) was −4.54 log10M, the Log10GI50 (CAKI-1; Renal Cancer, CAKI-1) was −4.94 and the IC50 [1] was “below one nM”. The “antimalarial potency in vitro relative to artemisinin” value [1] was 10 times, the IC50 ([1]; Table I, NF54 strain, read-out: IC50) was 0.59 nM and the Log10GI50 (MDA-MB231/ATCC; Breast Cancer, MDA-MB231/ATCC) was −4.99. The Log10LC50 (MDA-MB231/ATCC; MDA-MB231/ATCC (Breast Cancer), LC50: PG=−50) was −4.15 log10M, the Log10TGI50 (MDA-MB231/ATCC; MDA-MB231/ATCC (Breast Cancer), TGI: PG=0) was −4.57 log10M and the Log10GI50 (UACC-257; Melanoma, UACC-257) was under −8.00. It also gave a Log10LC50 (UACC-257; UACC-257 (Melanoma), LC50: PG=−50) of −4.36 log10M, a Log10TGI50 (UACC-257; UACC-257 (Melanoma), TGI: PG=0) of −4.90 log10M and a Log10GI50 (MCF7; Breast Cancer, MCF7) of under −8.00. It also gave a Log10LC50 (MCF7; MCF7 (Breast Cancer), LC50: PG=−50) of −4.22 log10M, a Log10TGI50 (MCF7; MCF7 (Breast Cancer), TGI: PG=0) of −4.88 log10M and a Log10LC50 (M14; M14 (Melanoma), LC50: PG=−50) of over −4.00 log10M. For the same compound, the Log10TGI50 (M14; M-14 (Melanoma), TGI: PG=0) was over −4.00 log10M, the Log10GI50 (M14; Melanoma, M14) was −4.59 and the Log10LC50 (A549/ATCC; A549/ATCC (Non-Small Cell Lung Cancer), LC50: PG=−50) was −4.11 log10M. It also gave a Log10TGI50 (A549/ATCC; A549/ATCC (Non-Small Cell Lung Cancer), TGI: PG=0) of −4.82 log10M, a Log10GI50 (A549/ATCC; Non-Small Cell Lung Cancer, A549/ATCC) of −7.59 and a Log10GI50 (HT29; Colon Cancer, HT29) of under −8.00. It also gave a Log10LC50 (HT29; HT29 (Colon Cancer), LC50: PG=−50) of over −4.00 log10M, a Log10TGI50 (HT29; HT29 (Colon Cancer), TGI: PG=0) of over −4.00 log10M and a Log10LC50 (COLO 205; COLO 205 (Colon Cancer), LC50: PG=−50) of −4.15 log10M. The Log10TGI50 (COLO 205; COLO 205 (Colon Cancer), TGI: PG=0) was −4.87 log10M, the Log10GI50 (COLO 205; Colon Cancer, COLO 205) was under −8.00 and the Log10GI50 (SK-OV-3; Ovarian Cancer, SK-OV-3) was −4.62. For the same compound, the Log10LC50 (SK-OV-3; SK-OV-3 (Ovarian Cancer), LC50: PG=−50) was over −4.00 log10M, the Log10TGI50 (SK-OV-3; SK-OV-3 (Ovarian Cancer), TGI: PG=0) was −4.15 log10M and the Log10LC50 (786-0; 786-0 (Renal Cancer), LC50: PG=−50) was over −4.00 log10M. It also gave a Log10TGI50 (786-0; 786-0 (Renal Cancer), TGI: PG=0) of −4.36 log10M, a Log10GI50 (786-0; Renal Cancer, 786-0) of −4.87 and a Log10LC50 (RPMI-8226; LC50: PG=−50) of over −4.00 log10M. For the same compound, the Log10TGI50 (RPMI-8226; TGI: PG=0) was over −4.00 log10M, the Log10GI50 (NCI/ADR-RES; Breast Cancer, NCI/ADR-RES) was −4.75 and the Log10LC50 (NCI/ADR-RES; NCI/ADR-RES (Breast Cancer), LC50: PG=−50) was over −4.00 log10M. The Log10LC50 (NCI-H460; NCI-H460 (Non-Small Cell Lung Cancer), LC50: PG=−50) was over −4.00 log10M, the Log10TGI50 (NCI-H460; NCI-H460 (Non-Small Cell Lung Cancer), TGI: PG=0) was −4.40 log10M and the Log10GI50 (NCI-H460; Non-Small Cell Lung Cancer, NCI-H460) was −5.02. For the same compound, the Log10GI50 (HCT-15; Colon Cancer, HCT-15) was −5.28, the Log10LC50 (HCT-15; HCT-15 (Colon Cancer), LC50: PG=−50) was −4.03 log10M and the Log10TGI50 (HCT-15; HCT-15 (Colon Cancer), TGI: PG=0) was −4.53 log10M. For the same compound, the Log10LC50 (K-562; K-562 (Leukemia), LC50: PG=−50) was over −4.00 log10M, the Log10TGI50 (K-562; K-562 (Leukemia), TGI: PG=0) was over −4.00 log10M and the Log10GI50 (K-562; Leukemia, K-562) was under −8.00. The Log10TGI50 (NCI-H522; NCI-H522 (Non-Small Cell Lung Cancer), TGI: PG=0) was −4.59 log10M, the Log10LC50 (NCI-H522; NCI-H-522 (Non-Small Cell Lung Cancer), LC50: PG=−50) was −4.17 log10M and the Log10GI50 (NCI-H522; Non-Small Cell Lung Cancer, NCI-H522) was −7.33. For the same compound, the Log10GI50 (HCT-116; Colon Cancer, HCT-116) was −4.72, the Log10LC50 (HCT-116; HCT-116 (Colon Cancer), LC50: PG=−50) was over −4.00 log10M and the Log10TGI50 (HCT-116; HCT-116 (Colon Cancer), TGI: PG=0) was over −4.00 log10M. For the same compound, the Log10GI50 (SF-268; CNS Cancer, SF-268) was −4.94, the Log10LC50 (SF-268; SF-268 (CNS Cancer), LC50: PG=−50) was −4.12 log10M and the Log10TGI50 (SF-268; SF-268 (CNS Cancer), TGI: PG=0) was −4.53 log10M. For the same compound, the Log10LC50 (MDA-MB-435; LC50: PG=−50) was −4.09 log10M and the Log10TGI50 (MDA-MB-435; TGI: PG=0) was −4.54 log10M.
